# Assay results from PubChem BioAssay AID2286 (Southern Research Specialized Biocontainment Screening …, 2010).
# Active and inactive are the calls of the source.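 The calls were made as follows: active = minimum cell viability of 80% or lower across the dose range, counted as toxic; inactive = minimum cell viability above 80%.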
# Experiment: MAGI-CCR5 and HeLa-R5-16 cytotoxicity, dose response, cytotoxicity control for HIV-1 fusion inhibitor project, cell-based, MAGI and MAGI-HeLa co-culture (AID 2286);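 also: cells exposed to compound for at least 64 h before ATP readout; 100% = median of DMSO vehicle wells with no ATP signal meaning 0%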
# Conditions: MAGI-CCR5 cells viability, CellTiter-Glo ATP luminescence; for minimum viability: measured here: MAGI minimum viability across doses
# [1] = MAGI-HeLa co-culture viability, at 50 µM, stronger effect = lower value
# [2] = at 3.13 µM, stronger effect = lower value
# [3] = at 1.56 µM, stronger effect = lower value
# [4] = at 12.5 µM, stronger effect = lower value
# [5] = at 0.78 µM, stronger effect = lower value
# [6] = at 6.25 µM, stronger effect = lower value
structure (smiles),measurement,setting,value
COc1cc(NS(=O)(=O)c2ccc(NC(=S)NC(=O)c3sc4ccccc4c3Cl)cc2)nc(OC)n1,viability,[1],105%
same,minimum viability,"at 50 µM, stronger effect = lower value",76.8%
CCCOc1ccc(C(=O)NNC(=S)NC(=O)c2cc(-c3ccc(Cl)cc3)nc3ccccc23)cc1,viability,[1],89.5%
same,viability,at 50 µM (top of the series),98% (inactive)
same,minimum viability,[2],87.2%
Cc1cc(Cl)ccc1OC(C)C(=O)Nc1ccc(S(=O)(=O)Nc2cnc3ccccc3n2)cc1 (configuration not stated),viability,[1],89.2%
same,minimum viability,"at 50 µM, stronger effect = lower value",72.9%
COc1ccc(C(=O)COC(=O)c2ccccc2NS(=O)(=O)c2ccc(O)c([N+](=O)[O-])c2)cc1,viability,[1],96%
same,viability,at 50 µM (top of the series),83.3% (inactive)
same,minimum viability,"at 50 µM, stronger effect = lower value",83.3%
COc1ccc(-c2nn(-c3ccccc3)cc2/C=C\C(=O)Nc2ccc(C(=O)O)cc2)cc1,viability,[1],93.2%
same,minimum viability,"at 50 µM, stronger effect = lower value",73%
COC(=O)c1sc(-c2ccc(C(C)(C)C)cc2)cc1NC(=O)CSCC(=O)O,viability,[1],105%
same,viability,at 50 µM (top of the series),83.5% (inactive)
same,minimum viability,"at 50 µM, stronger effect = lower value",83.5%
O=C(O)c1cccc(N/N=C/c2cc(Br)cc(Br)c2O)c1,viability,[1],132%
same,viability,at 50 µM (top of the series),127% (inactive)
same,minimum viability,[2],90.9%
COc1cc(/C=C2\C(=N)N3N=C(S(C)(=O)=O)SC3=NC2=O)ccc1OS(=O)(=O)c1ccccc1,viability,[1],113%
same,viability,at 50 µM (top of the series),91.8% (inactive)
same,minimum viability,"at 50 µM, stronger effect = lower value",91.8%
O=C(O)c1cccc(-n2cccc2/C=C2/NC(=O)N(c3ccc(Cl)cc3)C2=O)c1,viability,[1],112%
same,viability,at 50 µM (top of the series),106% (inactive)
same,minimum viability,[3],97.5%
COc1cc(/C=C2\SC(=O)N(CC(=O)Nc3cccc(C)c3)C2=O)cc([N+](=O)[O-])c1O,viability,[1],111%
same,minimum viability,"at 50 µM, stronger effect = lower value",74.5%
CC(C)c1ccc(OCC(=O)Nc2cccc(C(=O)Nc3ccccc3C(=O)O)c2)cc1,viability,[1],96.4%
same,viability,at 50 µM (top of the series),84% (inactive)
same,minimum viability,"at 50 µM, stronger effect = lower value",84%
COc1cccc(-c2nc(SCC(=O)Nc3nc(-c4ccccc4)c(C)s3)[nH]c(=O)c2C#N)c1,viability,[1],116%
same,viability,at 50 µM (top of the series),87.6% (inactive)
same,minimum viability,"at 50 µM, stronger effect = lower value",87.6%
CCOc1cc(/C=C2/C(=N)N3C(=NC2=O)SN=C3S(=O)(=O)CC)ccc1OC(=O)c1ccco1,viability,[1],108%
same,viability,at 50 µM (top of the series),112% (inactive)
same,minimum viability,"at 0.1 µM, stronger effect = lower value",106%
O=C(O)CSc1ncnc2c1sc1nc(-c3ccccc3)c3c(c12)CCC3,viability,[1],111%
same,viability,at 50 µM (top of the series),98.6% (inactive)
same,minimum viability,[4],92.4%
Cc1ccc(-n2c(O)c(C=Nc3ccccc3-c3n[nH]c(=S)[nH]c3=O)c3ccccc3c2=O)c(C)c1,viability,[1],85.8%
same,minimum viability,"at 50 µM, stronger effect = lower value",53.6%
N#Cc1c(-c2cccs2)nc(SCc2ccc(Cl)cc2)[nH]c1=O,viability,[1],118%
same,minimum viability,"at 50 µM, stronger effect = lower value",73%
Cc1cccc(OCC(=O)Nc2ccc(C(=O)Nc3ccccc3C(=O)O)cc2)c1C,viability,[1],93%
same,minimum viability,"at 50 µM, stronger effect = lower value",76.6%
O=C(O)CSc1nc(-c2ccc(Cl)cc2)nc2c1oc1ccccc12,viability,[1],108%
same,viability,at 25 µM (top of the series),86.3% (inactive)
same,minimum viability,[2],86.2%
O=C(O)c1cc(-c2ccc(/C=C3\NC(=O)N(c4ccc(Cl)cc4)C3=O)o2)ccc1Cl,viability,[1],95.2%
same,viability,at 50 µM (top of the series),102% (inactive)
same,minimum viability,[5],93.3%
Cc1cc(N2C(=O)C(O)=C(C(=O)c3ccc(C)o3)C2c2cccc(Oc3ccccc3)c2)no1 (configuration not stated),viability,[1],89%
same,viability,at 50 µM (top of the series),82.1% (inactive)
same,minimum viability,"at 50 µM, stronger effect = lower value",82.1%
O=C1/C(=C2\C(=O)N(Cc3ccc(F)cc3)c3ccccc32)SC(=S)N1CCS(=O)(=O)O,viability,[1],114%
same,viability,at 50 µM (top of the series),99.5% (inactive)
same,minimum viability,"at 50 µM, stronger effect = lower value",99.5%
O=C(CCCN1C(=O)/C(=C/c2cccs2)SC1=S)Nc1ccc(O)c(C(=O)O)c1,viability,[1],106%
same,minimum viability,"at 50 µM, stronger effect = lower value",62.3%
O=c1oc2ccccc2c(O)c1C(c1ccc([N+](=O)[O-])cc1)c1c(O)c2ccccc2oc1=O,viability,[1],133%
same,minimum viability,"at 50 µM, stronger effect = lower value",68.8%
Cc1ccc(N2C(=O)/C(=C/c3ccc(CN(CCC#N)S(C)(=O)=O)o3)C(=O)NC2=S)cc1C,viability,[1],98.6%
same,viability,at 50 µM (top of the series),89.2% (inactive)
same,minimum viability,[4],84.4%
CCCCCNC(=O)c1ccc2c(=O)[nH]c3c(C(=O)NCC4CCCO4)sc(=S)n3c2c1 (configuration not stated),viability,[1],105%
same,minimum viability,"at 25 µM, stronger effect = lower value",69.3%
N#Cc1c(-c2ccccc2)nc(SCc2ccc(Cl)cc2)[nH]c1=O,viability,[1],113%
same,viability,at 50 µM (top of the series),86.1% (inactive)
same,minimum viability,"at 50 µM, stronger effect = lower value",86.1%
COc1cc(NS(=O)(=O)c2ccc(Nc3nc(-c4ccccc4)cs3)cc2)nc(OC)n1,viability,[1],82.3%
same,minimum viability,"at 50 µM, stronger effect = lower value",67.3%
CC(C)CS(=O)(=O)C1=NSC2=NC(=O)/C(=C\c3ccc(OC(=O)c4ccco4)cc3)C(=N)N21,viability,[1],104%
same,viability,at 50 µM (top of the series),95.1% (inactive)
same,minimum viability,[6],85.3%
O=C(O)CCN1C(=O)/C(=C\c2cccc(OCC(=O)Nc3ccc(Cl)cc3)c2)SC1=S,viability,[1],88%
same,minimum viability,"at 50 µM, stronger effect = lower value",73.5%
O=C(NCCc1ccccc1)c1ccc2c(=O)[nH]c3c(C(=O)NCC4CCCO4)sc(=S)n3c2c1 (configuration not stated),viability,[1],115%
same,minimum viability,"at 50 µM, stronger effect = lower value",70.9%
CC(C)COc1ccc(-c2nn(-c3ccccc3)cc2/C=C2/SC(=S)N(CC(=O)O)C2=O)cc1,viability,[1],90.2%
same,viability,at 50 µM (top of the series),81.5% (inactive)
same,minimum viability,"at 50 µM, stronger effect = lower value",81.5%
CC1=C(C#N)C(=O)NC(=O)/C1=C\c1ccc(-c2cc(C)c(C)cc2[N+](=O)[O-])o1,viability,[1],107%
same,viability,at 50 µM (top of the series),86.5% (inactive)
same,minimum viability,[4],83.3%
COc1ccc(C(=O)Nc2ccc(/C(C)=N/NC(=O)c3ccncc3)cc2)cc1,viability,[1],121%
same,viability,at 50 µM (top of the series),88.5% (inactive)
same,minimum viability,"at 50 µM, stronger effect = lower value",88.5%
CCOC(=O)c1sc(N2C(=O)C(O)=C(C(=O)c3ccco3)C2c2cccc([N+](=O)[O-])c2)nc1C (configuration not stated),viability,[1],110%
same,viability,at 50 µM (top of the series),83.5% (inactive)
same,minimum viability,"at 50 µM, stronger effect = lower value",83.5%
COc1ccc(/C=C2/SC(=O)N(CCCCCC(=O)Nc3ccccc3C(=O)O)C2=S)cc1,viability,[1],122%
same,minimum viability,"at 50 µM, stronger effect = lower value",66.9%
Cc1ccc(S(=O)(=O)Oc2ccc(/C=C3/C(=N)N4C(=NC3=O)SN=C4S(C)(=O)=O)cc2)cc1,viability,[1],104%
same,minimum viability,"at 50 µM, stronger effect = lower value",78.9%
Cc1ccc(NS(=O)(=O)c2ccc(N/N=C/c3ccccc3OCC(=O)O)c([N+](=O)[O-])c2)c(C)c1,viability,[1],101%
same,viability,at 50 µM (top of the series),108% (inactive)
same,minimum viability,"at 0.39 µM, stronger effect = lower value",88.5%
CCOc1cc(/C=C2\SC(=O)N(CC(=O)Nc3ccccc3F)C2=O)cc([N+](=O)[O-])c1O,viability,[1],114%
same,minimum viability,"at 50 µM, stronger effect = lower value",77.4%
O=C(Nc1cccc(C(F)(F)F)c1)c1cccc(NS(=O)(=O)c2ccc(O)c(C(=O)O)c2)c1,viability,[1],107%
same,viability,at 50 µM (top of the series),85.7% (inactive)
same,minimum viability,"at 25 µM, stronger effect = lower value",83.3%
COc1ccc(N2C(=O)/C(=C/c3ccco3)C(=O)NC2=S)cc1,viability,[1],86.3%
same,viability,at 50 µM (top of the series),100% (inactive)
same,minimum viability,[3],84.8%
O=C(O)c1[nH]c2ccccc2c1C(c1cc(Cl)cc([N+](=O)[O-])c1O)c1c(C(=O)O)[nH]c2ccccc12,viability,[1],96.1%
same,viability,at 50 µM (top of the series),99.1% (inactive)
same,minimum viability,[4],93.4%
O=C(O)CSc1cc(C(=O)c2ccccc2O)cn2c(=O)c3c4c(sc3nc12)CCCC4,viability,[1],114%
same,viability,at 50 µM (top of the series),93.2% (inactive)
same,minimum viability,[4],92.1%
O=C(O)c1ccc(-c2ccc(/C=C3\NC(=O)N(Cc4ccc(Cl)cc4)C3=O)o2)cc1Cl,viability,[1],102%
same,viability,at 50 µM (top of the series),107% (inactive)
same,minimum viability,[2],98.2%
COc1cc(/C=C2\C(=N)N3N=C(S(C)(=O)=O)SC3=NC2=O)cc(OC)c1OCCOc1ccc(C)cc1,viability,[1],111%
same,viability,at 50 µM (top of the series),101% (inactive)
same,minimum viability,"at 25 µM, stronger effect = lower value",98.3%
NC(=O)Cn1cc(C=C2C(=O)NC(=O)NC2=O)c2ccccc21,viability,[1],99.6%
same,viability,at 50 µM (top of the series),91.7% (inactive)
same,minimum viability,"at 50 µM, stronger effect = lower value",91.7%
O=C(O)/C=C/C(=O)Nc1ccc(C2(c3ccc(NC(=O)/C=C/C(=O)O)cc3)c3ccccc3-c3ccccc32)cc1,viability,[1],120%
same,viability,at 50 µM (top of the series),93.2% (inactive)
same,minimum viability,"at 25 µM, stronger effect = lower value",88.8%
COc1ccc(C(=O)Nc2ccccc2C(=O)O)cc1NC(=O)C(c1ccccc1)c1ccccc1,viability,[1],116%
same,viability,at 50 µM (top of the series),99.7% (inactive)
same,minimum viability,[6],89.1%
COc1ccc(N=C2S/C(=C\c3ccc(OCC(=O)O)cc3)C(=O)N2CCc2c[nH]c3ccccc23)cc1,viability,[1],173%
same,viability,at 50 µM (top of the series),93.7% (inactive)
same,minimum viability,"at 25 µM, stronger effect = lower value",90.8%
O=C(CCN1C(=O)/C(=C/c2ccccc2Cl)SC1=S)Nc1ccccc1C(=O)O,viability,[1],109%
same,viability,at 50 µM (top of the series),98.3% (inactive)
same,minimum viability,[5],87.5%
CS(=O)(=O)C1=NSC2=NC(=O)/C(=C\c3cccn3-c3ccc(Cl)cc3)C(=N)N21,viability,[1],93.6%
same,viability,at 50 µM (top of the series),88% (inactive)
same,minimum viability,"at 50 µM, stronger effect = lower value",88%
CCCCCC#CCC#CCC#CCC#CCCCC(=O)O,viability,[1],119%
same,viability,at 50 µM (top of the series),94.8% (inactive)
same,minimum viability,[2],89.9%
O=C(O)C(c1ccccc1)N1C(=O)/C(=C\c2ccc(O)c(O)c2)SC1=S (configuration not stated),viability,[1],95.1%
same,viability,at 50 µM (top of the series),105% (inactive)
same,minimum viability,[4],99.2%
CC(C)S(=O)(=O)C1=NSC2=NC(=O)/C(=C\c3ccc(-c4ccccc4)o3)C(=N)N21,viability,[1],123%
same,minimum viability,"at 50 µM, stronger effect = lower value",73.2%
